Patent publication EP0054756A2, “Antibacterial benzylpyrimidines” (THE WELLCOME FOUNDATION LIMITED, priority 1980, dated 1982)
In brackets after ≈: the same amount, converted by molar mass. Several values for one entry are separate records, joined by “and”; a condition that tells them apart may be missing. Identical values can stand only once. Like-named read-outs stand apart in the source and are kept apart here.

Columns and labels:
[1] = system: St. pyogenes; assay: In vitro antibacterial activity (MIC); assay type: cell-based; details: for MIC: Streptococcus pyogenes
[2] = system: Strep.Faecalis CN 478; assay: In vitro antibacterial activity (MIC); assay type: cell-based; details: for MIC: Enterococcus faecalis, CN478
[3] = system: Staph.aureus CN 491; assay: In vitro antibacterial activity (MIC); assay type: cell-based; details: for MIC: Staphylococcus aureus
[4] = system: E. coli CN 314; assay: In vitro antibacterial activity (MIC); assay type: cell-based; details: Escherichia coli, CN314
[5] = system: N. gonorrhea; assay: In vitro antibacterial activity versus TMP, Wellcome test; assay type: cell-based; details: activity relative to trimethoprim
[6] = molecular target: Dihydrofolate reductase (Neisseria gonorrhoeae, UniProt P04174); assay: biochemical; details: N. gonorrhea enzyme; read-out: Dihydrofolate reductase inhibition, I50 x 10^8
[7] = molecular target: T1, Dihydrofolate reductase (Rattus norvegicus, UniProt Q920D2); assay: Dihydrofolate reductase inhibition; assay type: biochemical, Rat liver
T1 construct: Rat liver; from tissue; host or cells: rat liver
T1 sequence (Q920D2 1-187): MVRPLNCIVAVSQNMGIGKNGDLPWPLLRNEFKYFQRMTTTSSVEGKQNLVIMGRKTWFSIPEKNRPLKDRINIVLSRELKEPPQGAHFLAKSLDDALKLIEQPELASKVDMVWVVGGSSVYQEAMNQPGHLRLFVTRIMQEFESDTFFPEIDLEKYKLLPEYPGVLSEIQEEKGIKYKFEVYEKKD

[8] = molecular target: Dihydrofolate reductase (Plasmodium berghei, UniProt Q27713); assay: biochemical; details: P. berghei enzyme; read-out: Dihydrofolate reductase inhibition, I50 x 10^8
[9] = molecular target: Dihydrofolate reductase (Escherichia coli, UniProt P0ABQ4); assay: Dihydrofolate reductase inhibition; assay type: biochemical, E. coli
[10] = system: Staphylococcus aureus; assay: In vitro MIC against bovine mastitis strains; assay type: cell-based; details: read-out: Approximate MIC
Description: (§1) All organisms were isolated from the bovine udder.

[11] = system: Streptococcus agalactiae; assay: In vitro MIC against bovine mastitis strains; assay type: cell-based; details: read-out: Approximate MIC
Description: as §1

[12] = system: Streptococcus dysgalactiae; assay: In vitro MIC against bovine mastitis strains; assay type: cell-based; details: read-out: Approximate MIC
Description: as §1

[13] = system: Streptococcus uberis; assay: In vitro MIC against bovine mastitis strains; assay type: cell-based; details: Internal Ref. No. 359, isolated from the bovine udder, read-out: Approximate MIC
Description: as §1

[14] = system: Staphylococcus aureus; assay: In vitro MIC against bovine mastitis strains; assay type: cell-based; details: "OXFORD", Internal Ref. No. 6571, read-out: Approximate MIC
[15] = read-out: MIC St. pyogenes CN 10
[16] = read-out: MIC St. pyogenes S3640
[17] = Rat liver enzyme, read-out: Dihydrofolate reductase inhibition, I50 x 10^8
[18] = Internal Ref. No. 316, isolated from the bovine udder
[19] = Internal Ref. No. 317, isolated from the bovine udder
[20] = Internal Ref. No. 348, isolated from the bovine udder
[21] = Internal Ref. No. 349, isolated from the bovine udder
[22] = Internal Ref. No. 352, isolated from the bovine udder
[23] = Internal Ref. No. 353, isolated from the bovine udder
[24] = Internal Ref. No. 321, isolated from the bovine udder
[25] = Internal Ref. No. 371, isolated from the bovine udder
[26] = Internal Ref. No. 366, isolated from the bovine udder
[27] = Internal Ref. No. 367, isolated from the bovine udder

Row | Compound | MIC [1, 15] | MIC [1, 16] | MIC [2] | MIC ([3]; CN491) | MIC [4] | IC50 [6] | IC50 [7, 17] | IC50 [9] | IC50 [7] | MIC [10, 18] | MIC [10, 19] | MIC [10, 20] | MIC [10, 21] | MIC [10, 22] | MIC [10, 23] | MIC [11, 24] | MIC [11, 25] | MIC [12, 26] | MIC [12, 27] | MIC [13] | further results
1 | CCc1cc(Cc2cnc(N)nc2N)cc(CC)c1OCCOCc1ccccc1 [Example 6, 2,4-Diamino-5-(3,5-diethyl-4-(2-benzyloxyethoxy)benzyl)pyrimidine] | 3 µg/mL (≈ 7.38 µM) | 1 µg/mL (≈ 2.46 µM) | 0.3 µg/mL (≈ 0.738 µM) | 3 µg/mL (≈ 7.38 µM) | 10 µg/mL (≈ 24.6 µM) | 48 nM | 26000 nM | – | – | – | – | – | – | – | – | – | – | – | – | – | Act., vs TMP N. gonorrhea Wellcome test [5]: 0.35; IC50 [8]: 34 nM
2 | COc1cc(Cc2cnc(N)nc2N)cc(OCCOCc2ccccc2)c1OC [compound 4, 2,4-Diamino-5-(3,4-dimethoxy-5-(2-benzyloxyethoxy)benzyl)pyrimidine] | – | – | – | – | – | 78 nM | – | 5.4 nM | 300000 nM | 0.25 µM (≈ 0.103 µg/mL) | 0.075 µM (≈ 0.0308 µg/mL) | 0.25 µM (≈ 0.103 µg/mL) | 0.075 µM (≈ 0.0308 µg/mL) | 0.25 µM (≈ 0.103 µg/mL) | 0.075 µM (≈ 0.0308 µg/mL) | 0.25 µM (≈ 0.103 µg/mL) | 2.5 µM (≈ 1.03 µg/mL) | 3.3 µM (≈ 1.35 µg/mL) | 1 µM (≈ 0.41 µg/mL) | 2.5 µM (≈ 1.03 µg/mL) | MIC [14]: 0.075 µM (≈ 0.0308 µg/mL)
3 | COc1cc(Cc2cnc(N)nc2N)cc(OCCSc2ccccc2)c1OC [Example 14, 2,4-Diamino-5-(3,4-dimethoxy-5-(2-(phenylthio)ethoxy)benzyl)pyrimidine] | 0.5 µg/mL (≈ 1.21 µM) | 0.5 µg/mL (≈ 1.21 µM) | 0.5 µg/mL (≈ 1.21 µM) | 0.5 µg/mL (≈ 1.21 µM) | 1 µg/mL (≈ 2.42 µM) | 11.4 nM | – | 5.3 nM | 37000 nM | – | – | – | – | – | – | – | – | – | – | – | –
4 | 2,4-dimethoxy-5-(dime-thoxy-5-(3-p-aminophenyl-propoxy)benzyl)pyrimidine | – | – | – | – | – | 29 nM | 81000 nM | – | – | – | – | – | – | – | – | – | – | – | – | – | IC50 ([9]; E. coli enzyme, read-out: Dihydrofolate reductase inhibition, I50 x 10^8): 7.2 nM
5 | COc1cc(Cc2cnc(N)nc2N)cc(OCCSCc2ccccc2)c1OC [Example 15, 2,4-Diamino-5-(3,4-dimethoxy-5-(2-(benzylthio)ethoxy)benzyl)pyrimidine] | 0.5 µg/mL (≈ 1.17 µM) | 0.5 µg/mL (≈ 1.17 µM) | 0.1 µg/mL (≈ 0.234 µM) | 0.05 µg/mL (≈ 0.117 µM) | 0.5 µg/mL (≈ 1.17 µM) | 18 nM | – | 2 nM | 47000 nM | – | – | – | – | – | – | – | – | – | – | – | –
6 | COc1cc(Cc2cnc(N)nc2N)cc(OC)c1OC [Trimethoprim, reference compound] | – | – | 0.1 µg/mL (≈ 0.344 µM) | – | 0.1 µg/mL (≈ 0.344 µM) | – | – | – | – | 1 µM (≈ 0.29 µg/mL) | 0.33 µM (≈ 0.0958 µg/mL) | 1 µM (≈ 0.29 µg/mL) | 1 µM (≈ 0.29 µg/mL) | 3.3 µM (≈ 0.958 µg/mL) | 1 µM (≈ 0.29 µg/mL) | 1 µM (≈ 0.29 µg/mL) | 3.3 µM (≈ 0.958 µg/mL) | 3.3 µM (≈ 0.958 µg/mL) | 1 µM (≈ 0.29 µg/mL) | 10 µM (≈ 2.9 µg/mL) | MIC ([1]; strain CN 10, cell prints compound/trimethoprim, read-out: MIC St. pyogenes CN 10): 0.5 µg/mL (≈ 1.72 µM); MIC St. pyogenes CN 10 ([1]; strain CN 10, cell prints compound/trimethoprim): 0.3/0.3 ug/ml and 0.3 ug/ml; MIC Strep.Faecalis CN 478 ([2]; strain CN 478, cell prints compound/trimethoprim): 0.1 µg/mL (≈ 0.344 µM); MIC ([3]; CN491, strain CN 491, cell prints compound/trimethoprim): 0.5 µg/mL (≈ 1.72 µM); MIC Staph.aureus CN 491 ([3]; strain CN 491, cell prints compound/trimethoprim): 0.3 ug/ml and 0.3/0.3 ug/ml and 0.5/0.5 ug/ml; MIC [14]: 1 µM (≈ 0.29 µg/mL)
